Reference: patent publication US11191288B2, “Use of a feed composition for reducing methane emission in ruminants, and/or to improve ruminant performance” (DSM IP ASSETS B.V., priority 2017, dated 2021)

Columns and labels:
rumen liquor [1] = assay: In vitro test for methane production (modified Hohenheim Forage value Test, HFT); type: cell-based; conditions: for Total methane: 8 h, 39° C., artificial TMR, average of three experiments
Procedure: In Vitro Test for Methane Production:
(§1) A modified version of the “Hohenheim Forage value Test (HFT)” was used for testing the effect of specific compounds on the rumen functions mimicked by this in-vitro system.
(§2) Feed is gadded into a syringe with a composition of rumen liquor and an appropriate mixture of buffers. The solution is incubated at 39° C. After 8 hours the quantity (and composition) of gas phase produced is measured and put into a formula for conversion.
(§3) The feed stuff is sieved to 1 mm—usually TMR (44% concentrate, 6% hay, 37% maize silage and 13% grass silage)—and weighed exactly into 64 syringes. 4 of these syringes are the substrate controls, which display the gas production without the effect of the tested compounds. […] When needed, 4 syringes contain a carrier control (if the test compounds need a carrier). The remaining syringes contain the test substances, by groups of 4 syringes.
(§4) Preparation of the Medium Solution: • The components are mixed in a Woulff bottle in following order: • 711 ml water • 0.18 ml trace element solution • 355.5 ml buffer solution • 355.5 ml mass element solution • The completed solution is warmed up to 39° C. followed by the addition of 1.83 ml sodium salt solution and the addition of reduction solution at 36° C. The rumen liquor is added, when the indicator turns colourless.
(§5) 750 ml of rumen liquor are added to approximately 1,400 ml of medium solution under continued agitation and CO2-gassing.
(§6) The diluted rumen fluid (24 ml) is added to the glass syringe. The syringes are then incubated for 8 hours at 39° C. under gentle agitation. After 8 hours, the volume of gas produced is measured, and the percentage of methane in the gas phase is determined by gas chromatography.
(§7) The food fermented was artificial TMR (44% concentrate, 6% hay, 37% maize silage and 13% grass silage). Lauric acid from Sigma Aldrich was used at a concentration of 1000 μM. 3-Nitrooxy-propanol (3-NOP) was used at two different concentrations, 2.5 μM and 5 μM.
(§8) Ace.=acetate; Prop.=propionate

rumen liquor [2] = assay: Effect on volatile fatty acids (VFA) profile, acetate/propionate ratio (modified Hohenheim Forage value Test, HFT); type: cell-based; conditions: for Ace./Prop.: 8 h, 39° C., artificial TMR, average of three experiments
Procedure: as §1, §2, §3, §4, §5
Filling the Syringes, Incubation and Determining Gas Volumes and VFA Values:
as §6, §7, §8

Compound	Reduction vs. control (methane) (rumen liquor [1]; 3-NOP 2.5 μM)	Total methane (rumen liquor [1]; 3-NOP 2.5 μM)	Reduction vs. control (methane) (rumen liquor [1]; 3-NOP 5 μM)	Total methane (rumen liquor [1]; 3-NOP 5 μM)	Reduction vs. control (Ace./Prop.) (rumen liquor [2]; 3-NOP 2.5 μM)	Ace./Prop. (rumen liquor [2]; 3-NOP 2.5 μM)	Reduction vs. control (Ace./Prop.) (rumen liquor [2]; 3-NOP 5 μM)	Ace./Prop. (rumen liquor [2]; 3-NOP 5 μM)	Reduction vs. control (methane) (rumen liquor [1]; Lauric acid 1000 μM)	Total methane (rumen liquor [1]; Lauric acid 1000 μM)	Reduction vs. control (Ace./Prop.) (rumen liquor [2]; Lauric acid 1000 μM)	Ace./Prop. (rumen liquor [2]; Lauric acid 1000 μM)
O=[N+]([O-])OCCCO [3-NOP, 3-Nitrooxypropanol]	0.023 mmol over 8 h	0.244 mmol over 8 h	0.17 mmol over 8 h	0.097 mmol over 8 h	0.17 Mole Ratio	2.09 Mole Ratio	0.63 Mole Ratio	1.63 Mole Ratio				
CCCCCCCCCCCC(=O)O [Lauric acid, reference compound]									0.012 mmol over 8 h	0.255 mmol over 8 h	0.28 Mole Ratio	1.98 Mole Ratio
